Format in all cases: cell-based
Assay [1] has as its system Giardia lamblia trophozoites. The assay is described as follows: In vitro cytotoxicity microassay with XTT viability readout on trophozoites. Particulars: for % cell death at 25 µM (Hits confirmation) / % cell death at 50 µM (Hits confirmation) / % cell death at 100 µM (First screening) / % cell death at 12.5 µM (Hits confirmation): Table S9; for % cell death at 100 µM (First screening) / % cell death / % cell death 100 µM: 100 µM; for % cell death: first set of 54 compounds (Table S8); for IC50: G. lamblia trophozoites, standard deviation in parenthesis; for % cell death 100 µM: second set of 20 compounds (Table S10). The protocol:
The cytotoxicity test was performed using sterile 96 well clear flat bottom polystyrene TC-treated microplates (Corning Costar #3596). Every well contained in a triplicate 287.5 µL medium supplemented with a first set of 54 compounds of the collection, control drugs (metronidazole and tinidazole), and negative controls (0.05% DMSO). Afterwards, 12.5 µL of a cell suspension containing 1.6 x 10^7 trophozoites/mL was added to every well to obtain a final number of 2x10^5 cells/well and incubated at 37°C for 24 hours. […] A triplicate of blank was done by filling three wells with only 300 µL culture medium (no cells but DMSO). After that, the plates were chilled for 30 minutes to separate the adhered trophozoites in wells. Later, we transferred 50 µL of this suspension to a second plate containing 250 µL of TYI-S-33 media free of compounds, DMSO or antibiotic per well, and re-cultivated at 37°C for 24 hours. The test was performed by two independent experiments for all compounds.
>The trophozoites viability was evaluated using the 2,3-Bis(2-methoxy-4-nitro-5-sulfophenyl)-sH-tetrazolium-5-carboxianilide inner salt (XTT) assay. Antigiardiasic activity of each compound was expressed as the death percentage, calculated by using the next equation ([Inc, 2020]):
% death=[(Abs. of well with 100% viability−Abs. of well with compound)/(Abs. of well with 100% viability−Abs. of blank well)]X 100
The assay was performed by two independent experiments, where each compound was tested by triplicate.

Assay [2] deals with Giardia lamblia trophozoites. Briefly: Morphological studies of trophozoites (bright-field microscopy, transmission electron microscopy). The settings on record: at the IC50 concentration, 24 hours; for Morphological effects on trophozoites (bright-field microscopy): Giemsa stain. On the procedure: For bright-field microscopy (BFM), 2x10^6 trophozoites were placed in 1.5 mL vials containing antibiotic-free TYI-S-33 culture medium, with or without metronidazole, tinidazole, albendazole, or the library compounds, at the IC50 concentration values. The trophozoites were incubated for 24 hours/37°C and harvested by chilling in ice bath for 15 minutes and centrifuged at 2,000 x g/5 minutes. The bottom cell was washed three times with PBS, and then, placed in glass slides, fixed with MeOH and stained with Giemsa. Finally, the samples were analyzed by BFM. To identify ultrastructural damage, 1x10^6 trophozoites treated as described before were fixed with 2.5% glutaraldehyde and post-fixed with 1% osmium tetroxide in 0.1 M cacodylate buffer, pH 7.2. Afterward, the samples were dehydrated with sequential increasing of ethanol concentrations and then, embedded in epoxy resin. Ultrathin sections of samples were analyzed in a JEOL-JEM-1200 transmission electron microscope coupled to a CCD GATAN camera in the Unidad de Imagenología del Instituto de Fisiología Celular, UNAM.

Assay [3] concerns HaCaT cells. Briefly: Cytotoxicity assay in human keratinocytes (crystal violet). Particulars: for IC50: HaCaT human keratinocytes, standard deviation in parenthesis; for Selectivity Index: IC50 HaCaT/IC50 Trophozoites. The protocol: The in vitro cytotoxicity evaluation of compounds was assayed in immortalized human keratinocytes cell line (HaCat). Briefly, cell cultures were grown in DMEM-F12 media supplemented with 10% decomplemented fetal bovine serum, at 37°C and 5% CO2. Before to test, cells were harvested by centrifugation at 25°C and resuspended in fresh media at 5x10^4 cells/mL. Then, the cells were placed in sterile 24 well clear flat bottom polystyrene TC-treated plates (Corning Costar, #353047) at 3x10^4 cells/well in a volume of 600 µL during 24 hours/37°C at 5% CO2, […] of media was replaced by the same amount of fresh media containing the compounds at concentrations of 100, 90, 80, 70, 60, and 50 µM; DMSO was used as a negative control. The cells were incubated for 48 hours/37°C and 5% CO2. In the end, the cells were washed two times with PBS, fixed and stained by incubating 15 minutes in a solution containing 50% EtOH, 1.75% formaldehyde, 0.75% crystal violet, and 0.25% NaCl. Then, the plates were washed several times with water until removing the colorant excess. After that, the plates were dried for one day at 25°C. Finally, 600 µL of PBS supplemented with 1% SDS was added to wells. The crystal violet incorporated to cells was spectrophotometrically quantified at 570 nm; the IC50 values were calculated from the percentage of death obtained from the different concentrations of assayed compounds. The assay was performed by two independent experiments, each compound was tested by triplicate.

The structures appear in SMILES notation. Where “and” joins values, the source holds several entries; their conditions need not be identical. Equal entries are not always repeated.

Regarding `COc1ccc(/C=C2/CC3(C(=O)N[C@@H](C)c4ccccc4)c4ccccc4CN3C2=O)cc1OC` (stereo partly drawn) [EHV-110-174, 2-((Z)-3,4-dimethoxybenzylidene)-3-oxo-N-((S)-1-phenylethyl)-2,3-dihydro-1H-pyrrolo[2,1-a]isoindole-9b(5H)-carboxamide], the “% cell death at 25 µM (Hits confirmation)” value (from here on “% cell death at 25 µM”) in assay [1] (25 µM) was found to be 98.298%. For the same compound, the “% cell death at 50 µM (Hits confirmation)” value (from here on “% cell death at 50 µM”) in assay [1] (50 µM) is given as 98.312%. In assay [1], the “% cell death at 100 µM (First screening)” value was determined as 100.0%, the “% cell death” value came out at 100.0% and the IC50 was determined as 10.9 µM. The IC50 in assay [1] (Giardia duodenalis) amounted to 11 µM. In addition, in assay [2], the “Ultrastructural effects on trophozoites (transmission electron microscopy)” value (from here on “Ultrastructural effects on trophozoites”) was “damaged the cellular nuclei inducing chromatin condensation and conferring to it a speckled pattern”; the “Morphological effects on trophozoites (bright-field microscopy)” value (from here on “Morphological effects on trophozoites”) was “the cells are translucent and swelling, with shortening of flagella but without general morphological deformation”. Moreover, the IC50 in assay [3] (Homo sapiens, HaCaT, 48 h) was 130 µM. In addition, in assay [3], the “Selectivity Index” value was 12.
On to `Cc1ncc([N+](=O)[O-])n1CCO` [Metronidazole, reference compound], for which, in assay [1], the “% cell death at 12.5 µM (Hits confirmation)” value (“% cell death at 12.5 µM” for short) came out at 86.562%, the “% cell death at 100 µM (First screening)” value turned out to be 100.0%, the “% cell death” value came to 100.0% and the “% cell death 100 µM” value turned out to be 100.1%. In assay [1] (Giardia duodenalis), the IC50 worked out at 2.6 µM. For the same compound, in assay [2], the “Ultrastructural effects on trophozoites” value is “without apparent morphologic changes”; the “Morphological effects on trophozoites” value is “provoked cell swelling and the voiding of cytoplasmic contents making the cells translucent”. Besides, the IC50 in assay [3] (Homo sapiens, HaCaT, 48 h) came out at 71.9 µM. Also, in assay [3], the “Selectivity Index” value was determined as 27.6.
As for `COc1ccc(/C=C2/CC3(C(=O)NC4CCCCC4)c4ccccc4CN3C2=O)cc1OC` (stereo not drawn) [EHV-110-154], the “% cell death at 12.5 µM” value in assay [1] was 4.160%. For the same compound, the “% cell death at 25 µM” value in assay [1] (25 µM) is given as 10.752%. In addition, in assay [1] (50 µM), the “% cell death at 50 µM” value is 94.654%. For the same compound, the “% cell death at 100 µM (First screening)” value in assay [1] is on record as 100.0%. Besides, in assay [1], the “% cell death” value turned out to be 100.0%. In addition, the concentration for half-maximal inhibition (IC50) in assay [1] (Giardia duodenalis) came out at 30 µM; in assay [3] (48 hours) it was 50.6 µM; in assay [3] (Homo sapiens, HaCaT, 48 h), 50 µM. Also, the “Morphological effects on trophozoites” value in assay [2] is “affected the nuclear structure and promoted the loss of one nucleus”. The “Selectivity Index” value in assay [3] stood at 1.68.
Regarding `CCCSc1ccc2nc(NC(=O)OC)[nH]c2c1` [Albendazole], in assay [2], the “Ultrastructural effects on trophozoites” value is recorded as “loss of adhesive disc” and the “Morphological effects on trophozoites” value is given as “an intense deformation of its general structure was observed”.
For the compound `CCS(=O)(=O)CCn1c([N+](=O)[O-])cnc1C` [Tinidazole, reference compound], in assay [1], the “% cell death at 12.5 µM” value is given as 98.499%, the “% cell death at 100 µM (First screening)” value amounted to 100.0%, the “% cell death” value turned out to be 100.0% and the “% cell death 100 µM” value came to 100.7%. For the same compound, in assay [1] (Giardia duodenalis), the IC50 amounted to 1.3 µM. Moreover, the “Morphological effects on trophozoites” value in assay [2] was “provoked cell swelling and the voiding of cytoplasmic contents making the cells translucent”. The 50% inhibitory concentration (IC50) in assay [3] (Homo sapiens, HaCaT, 48 h) is 60.9 µM. The “Selectivity Index” value in assay [3] is listed as 46.
Turning to `COc1ccc(/C=C2/CC3(C(=O)NC(C)(C)C)c4ccccc4CN3C2=O)cc1OC` (stereo not drawn) [EHV-110-106], the “% cell death 25 µM” value in assay [1] (25 µM, second set (Table S10)) was 8.2%. Besides, the “% cell death 50 µM” value in assay [1] (50 µM, second set (Table S10)) stood at 13.4%. Also, the “% cell death 100 µM” value in assay [1] is 89.2%.
Take `COc1ccc(/C=C2/CC3(C(=O)NC(C)(C)C)c4cc(F)ccc4CN3C2=O)cc1OC` (stereo not drawn) [EHV-110-160]: in assay [1], the “% cell death at 12.5 µM” value is given as 2.874%, the “% cell death at 100 µM (First screening)” value stood at 100.0% and the “% cell death” value came to 100.0%. For the same compound, the “% cell death at 25 µM” value in assay [1] (25 µM) was 67% and 66.901%. Besides, in assay [1] (50 µM), the “% cell death at 50 µM” value is 98.178%. Moreover, the IC50 in assay [1] (Giardia duodenalis) was determined as 20 µM. In assay [2], the “Morphological effects on trophozoites” value is “affected the nuclear structure and promoted the loss of one nucleus”. The IC50 in assay [3] (Homo sapiens, HaCaT, 48 h) is 141 µM. For the same compound, the “Selectivity Index” value in assay [3] is 7.

The values above are taken from publication PMC8790063, “Discovery of Benzopyrrolizidines as Promising Antigiardiasic Agents” (Frontiers in Cellular and Infection Microbiology, 2022).
